Where two headings read alike, the source gives them in different places.
Experiments:
Format in all cases: cell-based, human
HBL-100 cells [1] = experiment: Cell cycle analysis (DAPI, flow cytometry), HBL-100; conditions: for Cell cycle of HBL-100, G0/G1 / Cell cycle of HBL-100, G2/M / Cell cycle of HBL-100, S-phase / Cell cycle of HBL-100, subG0/G1: dose = IC50
Experimental: The cells were trypsinized and rinsed with the growth medium. Then, the cells were harvested by centrifugation at 500× g for 3 min, and the supernatant was discarded. The cells were washed with PBS (PanEco, Moscow, Russia) twice and centrifuged under similar conditions. The cells were resuspended in 500 μL of PBS, put into centrifuge tubes and fixed by adding 4.5 mL of 70% ethanol dropwise (on ice). The samples were fixed at 4 °C. Overnight, the fixed cells were centrifugally collected (1000× g, 4 °C, 5 min) and washed again with PBS. The cells were finally resuspended in DAPI with 0.1% Triton X-100 in PBS solution (10 μg/mL, Sigma–Aldrich, St. Louis, MO, USA), and stained for 30 min at room temperature in darkness. For each sample, at least 50,000 cells were analyzed using the CytoFlex S flow cytometer (Beckman Coulter, Brea, CA, USA). Cell cycle populations were quantified from DNA histograms with the FlowJo software (ver. X 10.0.7r2, FlowJo Software, San Jose, CA, USA).

MCF-7 = experiment: MTT cell viability assay, MCF-7; conditions: for IC50: Homo sapiens, MCF7
From the text: (§1) Blokhin National Medical Research Center of Oncology (the Ministry of Health of the Russian Federation, Moscow).

HCT116 = experiment: MTT cell viability assay, HCT116; conditions: for IC50: Homo sapiens, HCT-116
From the text: as §1

HBL-100 = experiment: MTT cell viability assay, HBL-100; conditions: for IC50: Homo sapiens
Experimental: The cells were cultured in a humidified CO2 incubator (model 460-CE; Thermo Fisher Scientific, Waltham, MA, USA) at +37 °C and 5% CO2.
The percentage of the viable cells was calculated according to the following equation: cell viability (%) = 100 × (mean absorbance in the treatment group/mean absorbance in the control group). The results were expressed pictorially using Prism 6.0 (GraphPad Software, Boston, MA, USA).

HBL-100 cells [2] = experiment: Western blotting of cytochrome c, cleaved caspase-9 and -8, HBL-100; conditions: 16 h, IC50
Experimental: The supernatant (cytosol fraction) and mitochondrial pellets were then collected, and protein concentration was determined by UV […] using 1–100 μg/mL BSA as standard curve concentrations (UV-2600i spectrophotometer; Shimadzu, Tokyo, Japan).
Then, the same protein amounts (20.0 µg in each lane) were loaded and separated by 4–20% Mini-PROTEAN TGX Stain-Free Protein Gels (Bio-Rad Laboratories, Hercules, CA, USA), followed by transferring onto polyvinylidene difluoride (PVDF) membranes. The membranes were blocked with 1% (w/v) casein in Tris-buffered saline containing 0.1% Tween-20 (TBS-T), and were incubated overnight with primary antibodies (1:1000) of Cytochrome c (D18C7) Rabbit mAb, Cleaved Caspase-9 (Asp330) (E5Z7N) Rabbit mAb, Cleaved Caspase-8 (Asp374) (18C8) Rabbit mAb, and β-Actin (D6A8) Rabbit mAb (Cell Signaling Technology, Danvers, MA, USA) for cytosol and mitohondrial fractions at 4 °C. The next day, the PVDF membranes were washed thrice in TBS-T and incubated with HRP-conjugated secondary antibodies (1:1000) (Cell Signaling Technology, Danvers, MA, USA) for 1 h at RT. Immunoreactive proteins were detected by Clarity Western ECL Substrate (Bio-Rad Laboratories, Hercules, CA, USA) and then analyzed on the ChemiDoc MP Imaging system (Bio-Rad Laboratories, Hercules, CA, USA). The proteins were quantified by densitometry using Image Lab software (version 6.0; Bio-Rad Laboratories, Hercules, CA, USA). To normalize protein expression data, a blot with β-Actin was used.

PC-3 = experiment: MTT cell viability assay, PC-3; conditions: for IC50: Homo sapiens
From the text: as §1

A549 = experiment: MTT cell viability assay, A549; conditions: for IC50: Homo sapiens
From the text: as §1

HEpG2 = experiment: MTT cell viability assay, HEpG2; conditions: for IC50: Homo sapiens
From the text: as §1

MS = experiment: MTT cell viability assay, MS; conditions: for IC50: Homo sapiens;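 as to IC50 (mean ± SD): MS is a melanocyte cell line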
From the text: as §1

COC(=O)[C@]12CC[C@@H](C(C)C)[C@@H]1[C@H]1CC[C@@H]3[C@@](C)(CCC#N)[C@H](C(=O)C(Br)Br)CC[C@@]3(C)[C@]1(C)CC2 [compound 31, 2-Cyano-24,24-dibromo-4-oxo-3,4-seco-3,23-dinorlupan-28-oic acid methyl ester]
Cell cycle of HBL-100, G0/G1 (HBL-100 cells [1]; 12 h): 59.78±0.94% | Cell cycle of HBL-100, G2/M (HBL-100 cells [1]; 12 h): 15.88±0.50% | Cell cycle of HBL-100, S-phase (HBL-100 cells [1]; 12 h): 24.35±0.43% | Cell cycle of HBL-100, subG0/G1 (HBL-100 cells [1]; 12 h): 1.44 ± 0.44% | Cell cycle of HBL-100, G0/G1 (HBL-100 cells [1]; 13 h): 56.56±0.16% | Cell cycle of HBL-100, G2/M (HBL-100 cells [1]; 13 h): 16.70±0.71% | Cell cycle of HBL-100, S-phase (HBL-100 cells [1]; 13 h): 26.74±0.54% | Cell cycle of HBL-100, subG0/G1 (HBL-100 cells [1]; 13 h): 1.74±0.05% | Cell cycle of HBL-100, G0/G1 (HBL-100 cells [1]; 14 h): 56.69±0.01% | Cell cycle of HBL-100, G2/M (HBL-100 cells [1]; 14 h): 16.96±0.16% | Cell cycle of HBL-100, S-phase (HBL-100 cells [1]; 14 h): 26.35±0.16% | Cell cycle of HBL-100, subG0/G1 (HBL-100 cells [1]; 14 h): 1.74±0.18% | Cell cycle of HBL-100, G0/G1 (HBL-100 cells [1]; 15 h): 57.83±1.04% | Cell cycle of HBL-100, G2/M (HBL-100 cells [1]; 15 h): 16.29±0.55% | Cell cycle of HBL-100, S-phase (HBL-100 cells [1]; 15 h): 25.88±0.49% | Cell cycle of HBL-100, subG0/G1 (HBL-100 cells [1]; 15 h): 2.38±0.42% | Cell cycle of HBL-100, G0/G1 (HBL-100 cells [1]; 16 h): 56.91±0.07% | Cell cycle of HBL-100, G2/M (HBL-100 cells [1]; 16 h): 18.83±0.14% | Cell cycle of HBL-100, S-phase (HBL-100 cells [1]; 16 h): 24.26±0.08% | Cell cycle of HBL-100, subG0/G1 (HBL-100 cells [1]; 16 h): 4.89±1.93% | Cell cycle of HBL-100, G0/G1 (HBL-100 cells [1]; 17 h): 55.78±0.79% | Cell cycle of HBL-100, G2/M (HBL-100 cells [1]; 17 h): 18.39±1.04% | Cell cycle of HBL-100, S-phase (HBL-100 cells [1]; 17 h): 25.83±0.24% | Cell cycle of HBL-100, subG0/G1 (HBL-100 cells [1]; 17 h): 3.50±0.42% | Cell cycle of HBL-100, G0/G1 (HBL-100 cells [1]; 18 h): 56.81±0.03% | Cell cycle of HBL-100, G2/M (HBL-100 cells [1]; 18 h): 15.38±0.01% | Cell cycle of HBL-100, S-phase (HBL-100 cells [1]; 18 h): 27.81±0.04% | Cell cycle of HBL-100, subG0/G1 (HBL-100 cells [1]; 18 h): 4.39±0.82% | Cell cycle of HBL-100, G0/G1 (HBL-100 cells [1]; 24 h): 66.48 ± 1.33% | Cell cycle of HBL-100, G2/M (HBL-100 cells [1]; 24 h): 4.43 ± 0.50% | Cell cycle of HBL-100, S-phase (HBL-100 cells [1]; 24 h): 29.09±0.89% | Cell cycle of HBL-100, subG0/G1 (HBL-100 cells [1]; 24 h): 8.22 ± 0.59% | effect on cell cycle progression (HBL-100 cells [1]; HBL-100 (parental) cells, 12-24 h, IC50): blocked or slowed down the cell cycle progression through the G0/G1 phase | IC50 (MCF-7; MCF-7, MTT, 72 h of treatment, read-out: IC50 Values (Mean ± SD)): 7.1 ± 0.7 µM | IC50 (MCF-7; Table S1, MCF-7, read-out: IC50 (mean ± SD)): 7.06 ± 0.72 µM | Selectivity index (SI) (MCF-7; ratio of IC50 values healthy (HEK293) / MCF-7): 1.62 | IC50 (HCT116; HCT116, MTT, 72 h of treatment, read-out: IC50 Values (Mean ± SD)): 3.9 ± 0.1 µM | IC50 (HCT116; Table S1, HCT116, read-out: IC50 (mean ± SD)): 3.86 ± 0.08 µM | Selectivity index (SI) (HCT116; ratio of IC50 values healthy (HEK293) / HCT116): 2.95 | death of the cells (HBL-100; HBL-100, MK at IC50 dose, after 72 h exposure): 50% | IC50 (HBL-100; HBL-100, MTT, 72 h of treatment, read-out: IC50 Values (Mean ± SD)): 1 ± 0.1 µM | IC50 (HBL-100; Table S1, HBL-100, read-out: IC50 (mean ± SD)): 0.99 ± 0.001 µM | Selectivity index (SI) (HBL-100; ratio of IC50 values healthy (HEK293) / HBL-100): 11.50 | activation of caspase-8 (HBL-100 cells [2]): not observed | activation of caspase-9 (HBL-100 cells [2]): sequential activation of initiator caspase-9 | cytochrome c release (HBL-100 cells [2]): provoked the release of cytochrome c from mitochondria to cytosol | IC50 (PC-3; PC-3, MTT, 72 h of treatment, read-out: IC50 Values (Mean ± SD)): 10.4 ± 1.3 µM | IC50 (PC-3; Table S1, PC-3, read-out: IC50 (mean ± SD)): 10.3 ± 1.27 µM | Selectivity index (SI) (PC-3; ratio of IC50 values healthy (HEK293) / PC-3): 1.11 | IC50 (A549; A549, MTT, 72 h of treatment, read-out: IC50 Values (Mean ± SD)): 7 ± 0.2 µM | IC50 (A549; Table S1, A549, read-out: IC50 (mean ± SD)): 7.01 ± 0.21 µM | Selectivity index (SI) (A549; ratio of IC50 values healthy (HEK293) / A549): 1.64 | IC50 (HEpG2; HEpG2, MTT, 72 h of treatment, read-out: IC50 Values (Mean ± SD)): 16.6 ± 0.4 µM | IC50 (HEpG2; Table S1, HEpG2, read-out: IC50 (mean ± SD)): 16.6 ± 0.41 µM | Selectivity index (SI) (HEpG2; ratio of IC50 values healthy (HEK293) / HEpG2): 0.69 | IC50 (MS; MS, MTT, 72 h of treatment, read-out: IC50 Values (Mean ± SD)): 16.5 ± 1.5 µM | IC50 (MS; Table S1, MS, read-out: IC50 (mean ± SD)): 16.5 ± 1.53 µM | Selectivity index (SI) (MS; ratio of IC50 values healthy (HEK293) / MS): 0.70

Reference: PMC10298530, “Synthesis and Anticancer Activity of A-Ring-Modified Derivatives of Dihydrobetulin” (International Journal of Molecular Sciences, 2023)
